Earlier results on four compounds are cited in US20140147496A1, “COMPOSITION AND METHOD FOR FERTILITY THERAPY USING NUTRITIONAL SUPPLEMENTS” (FAIRHAVEN HEALTH, LLC, priority 2009, published 2014).

Data set [1] relates to idiopathic asthenozoospermic infertile patients. The following applies: after administration.
Data set [2] deals with sperm samples.
Data set [3] relates to Infertile men with idiopathic asthenozoospermia. The note with it: oral.
Data set [4] concerns infertile patients. The note with it: 60 mg, mean 103 days, 17 infertile patients.
Data set [5] has as its system infertile patients. The note with it: 2 g/day, two month cross-over, excluding outliers.
Data set [6] deals with patients with idiopathic asthenospermia. The note with it: 3 g/d.
Data set [7] shares this test system. The following applies: between baseline, 12 week, or 24 weeks.
Data set [8] deals with Patients with inflammatory abacterial prostatovesiculoepididymitis (PVE). The note with it: following a 3-month washout period.

Consider `COC1=C(OC)C(=O)C(C/C=C(\C)CC/C=C(\C)CC/C=C(\C)CC/C=C(\C)CC/C=C(\C)CC/C=C(\C)CC/C=C(\C)CC/C=C(\C)CC/C=C(\C)CCC=C(C)C)=C(C)C1=O` [Coenzyme Q10], for which, in data set [1], the “Coenzyme Q10 in seminal plasma and in sperm cells” value is given as “significant increase”; the sperm motility entry was “improvement in sperm motility”. Further, the motility after incubation entry in data set [2] (samples with initial normal motility, 5 μM or 50 μM, 24 h) is on record as “no significant change”. Further, in data set [2] (sperm samples from 22 asthenospermic men, in vitro, 50 μM), the motility result is “significant increases in motility”. Besides, in data set [3] (after 6 months of therapy), the “Coenzyme Q10 levels in seminal plasma and in sperm cells” value is “increased significantly”. In data set [3] (after 6 months, computer-assisted analysis), the sperm cell motility result is given as “significant increase”. Besides, in data set [4], the standard sperm parameters entry is listed as “no significant changes”. Besides, the fertilization rate result in data set [4] (p<0.05) was “significant improvement”.
In the case of `C[N+](C)(C)C[C@H](O)CC(=O)[O-]` [L-carnitine], the “semen quality over placebo (concentration, total and forward motility)” value in data set [5] is listed as “statistically significant improvement”.
For `CC(=O)O[C@H](CC(=O)[O-])C[N+](C)(C)C` [LAC, L-acetyl-carnitine], the sperm cell motility entry in data set [6] is recorded as “increased”.
On to `C[N+](C)(C)CC(O)CC(=O)[O-]` (stereo not shown) [carnitine], for which the “motility or total motile sperm counts” value in data set [7] is given as “no significant differences”. Besides, in data set [8], the “production of reactive oxygen species” value is “highest reduction”; the “sperm motility and viability” value was “increased”.
